# Measurements as given in US20150343016A1, “CHEMICAL ENTITIES AND THERAPEUTIC USES THEREOF” (The Regents of the University of Colorado, a body corporate, priority 2010, published 2015).
# How the values were obtained:
# [1] = tested on: UM-SCC19 Head and Neck Cancer cell line; assay: MTT assay, Bouvardin with ionizing radiation, UM-SCC19 (pre-treated); format: cell-based, human; conditions: UM-SCC19 cells
# Procedure: “Combination Index” computation. Combination Indices were calculated using CalcuSyn software (Biosoft), which uses the method of Chou and Talalay. This method first computes drug-induced effect using the Hill Equation: where E is the measured effect; C is the drug concentration; Emax is the full range of drug effect, usually at or near 100%; IC50 is the drug concentration producing the median effect of 50%; and n is the curve shape parameter describing the steepness of the concentration-effect relationship. The Chou and Talalay method then linearizes the Hill Equation by logarithmic transformation as: where fu is the fraction of cells left unaffected after drug exposure, fa is the fraction of cells affected by the exposure, C is the drug concentration used, Cm is the concentration to achieve the median effect, and n is the curve shape parameter. Cm and n are equivalent to IC50 and n, respectively, in the Hill Equation. The values of n (obtained from the slope), nlog(Cm) (obtained from the absolute value of the intercept), and, therefore, Cm are obtained by plotting log(fu−1−1) versus log(C). These numbers are then used to compute the Combination Index (CI) according to the formula: CI=(D)1/(Dx)1+(D)2/(Dx)2 (26). (Dx)1 and (Dx)2 are the doses required to achieve a given effect level for each treatment, i.e. a specified value of Fraction Affected or Fa. (D)1 and (D)2 are the doses of each treatment in a given combination which gives the same Fa.
# The growth inhibitory effects of Bouvardin with ionizing radiation (IR) were evaluated using a modified tetrazolium salt (MTT) assay. In the MTT assay, 1,000 to 2,000 viable cells were plated in 100 uL of growth medium in 96-well plates (Corning, Ithaca, N.Y.). Following an overnight incubation, drug was added in varying concentrations and the plates were irradiated on the same day (co-treatment) or 24 hr later (pre-treatment) and incubated for 6 to 7 days. The tetrazolium salt was added at a concentration of 0.4 mg/mL to each well following the 6- to 7-day treatment. The plates were incubated with the salt for 4 hours at 37° C. At 4 hours, the medium was aspirated off, leaving the dark blue formazan product at the bottom of the wells. The reduced MTT product was solubilized by adding […] of 0.2 N HCl in 75% isopropanol, 23% MilliQ water to each well. Thorough mixing was done using a Titertek multichannel pipetman. The absorbency of each well was measured using an automated plate reader (Molecular Devices, Sunnyvale, Calif.). All experiments were done in triplicate.
# MTT assays were used to determine the effect of Bouvardin (concentrations in uM) in combination with ionizing radiation (in Gy, X-axis). FIG. 14 depicts CI values for Bouvardin and radiation on 3 cell lines. Combination Index data from 3 different Head and Neck Cancer cell lines are shown. Black dashed lines represent a CI value of 1. CI values below 1 indicate synergy. 1586 and UM-SCC19 were pre-treated whereas HN31 was treated on the same day.
# LD50 in mice = conditions: mouse, in vivo
structure (smiles),measurement,setting,value
"COc1ccc(C[C@H]2C(=O)N[C@H](C)C(=O)N(C)[C@@H]3C(=O)N(C)[C@@H](Cc4ccc(O)c(c4)Oc4ccc(cc4)[C@H]3O)C(=O)N[C@@H](C)C(=O)N[C@H](C)C(=O)N2C)cc1 (stereo in doubt) [Bouvardin, bouvardin]",Combination Index,[1]; Bouvardin 0.001 uM + 1 Gy IR,13.885
same,Fraction Affected,[1]; Bouvardin 0.001 uM + 1 Gy IR,0.143
same,Combination Index,[1]; Bouvardin 0.001 uM + 2 Gy IR,2.245
same,Fraction Affected,[1]; Bouvardin 0.001 uM + 2 Gy IR,0.28
same,Combination Index,[1]; Bouvardin 0.001 uM + 4 Gy IR,1.023
same,Fraction Affected,[1]; Bouvardin 0.001 uM + 4 Gy IR,0.386
same,Combination Index,[1]; Bouvardin 0.003 uM + 1 Gy IR,5.143
same,Fraction Affected,[1]; Bouvardin 0.003 uM + 1 Gy IR,0.227
same,Combination Index,[1]; Bouvardin 0.003 uM + 2 Gy IR,1.22
same,Fraction Affected,[1]; Bouvardin 0.003 uM + 2 Gy IR,0.366
same,Combination Index,[1]; Bouvardin 0.003 uM + 4 Gy IR,0.627
same,Fraction Affected,[1]; Bouvardin 0.003 uM + 4 Gy IR,0.466
same,Combination Index,[1]; Bouvardin 0.006 uM + 1 Gy IR,1.696
same,Fraction Affected,[1]; Bouvardin 0.006 uM + 1 Gy IR,0.354
same,Combination Index,[1]; Bouvardin 0.006 uM + 2 Gy IR,0.762
same,Fraction Affected,[1]; Bouvardin 0.006 uM + 2 Gy IR,0.448
same,Combination Index,[1]; Bouvardin 0.006 uM + 4 Gy IR,0.82
same,Fraction Affected,[1]; Bouvardin 0.006 uM + 4 Gy IR,0.461
same,Combination Index,[1]; Bouvardin 0.01 uM + 1 Gy IR,1.561
same,Fraction Affected,[1]; Bouvardin 0.01 uM + 1 Gy IR,0.395
same,Combination Index,[1]; Bouvardin 0.01 uM + 2 Gy IR,0.694
same,Fraction Affected,[1]; Bouvardin 0.01 uM + 2 Gy IR,0.49
same,Combination Index,[1]; Bouvardin 0.01 uM + 4 Gy IR,0.619
same,Fraction Affected,[1]; Bouvardin 0.01 uM + 4 Gy IR,0.521
same,Combination Index,[1]; Bouvardin 0.03 uM + 1 Gy IR,1.414
same,Fraction Affected,[1]; Bouvardin 0.03 uM + 1 Gy IR,0.44
same,Combination Index,[1]; Bouvardin 0.03 uM + 2 Gy IR,0.777
same,Fraction Affected,[1]; Bouvardin 0.03 uM + 2 Gy IR,0.511
same,Combination Index,[1]; Bouvardin 0.03 uM + 4 Gy IR,0.848
same,Fraction Affected,[1]; Bouvardin 0.03 uM + 4 Gy IR,0.515
same,Combination Index,[1]; Bouvardin 0.06 uM + 1 Gy IR,1.587
same,Fraction Affected,[1]; Bouvardin 0.06 uM + 1 Gy IR,0.431
same,Combination Index,[1]; Bouvardin 0.06 uM + 2 Gy IR,1.482
same,Fraction Affected,[1]; Bouvardin 0.06 uM + 2 Gy IR,0.444
same,Combination Index,[1]; Bouvardin 0.06 uM + 4 Gy IR,1.01
same,Fraction Affected,[1]; Bouvardin 0.06 uM + 4 Gy IR,0.498
same,Combination Index,[1]; Bouvardin 0.1 uM + 1 Gy IR,2.102
same,Fraction Affected,[1]; Bouvardin 0.1 uM + 1 Gy IR,0.437
same,Combination Index,[1]; Bouvardin 0.1 uM + 2 Gy IR,1.027
same,Fraction Affected,[1]; Bouvardin 0.1 uM + 2 Gy IR,0.518
same,Combination Index,[1]; Bouvardin 0.1 uM + 4 Gy IR,1.691
same,Fraction Affected,[1]; Bouvardin 0.1 uM + 4 Gy IR,0.473
same,Combination Index,[1]; Bouvardin 0.3 uM + 1 Gy IR,1.313
same,Fraction Affected,[1]; Bouvardin 0.3 uM + 1 Gy IR,0.523
same,Combination Index,[1]; Bouvardin 0.3 uM + 2 Gy IR,1.347
same,Fraction Affected,[1]; Bouvardin 0.3 uM + 2 Gy IR,0.524
same,Combination Index,[1]; Bouvardin 0.3 uM + 4 Gy IR,1.052
same,Fraction Affected,[1]; Bouvardin 0.3 uM + 4 Gy IR,0.558
same,Combination Index,[1]; Bouvardin 0.6 uM + 1 Gy IR,1.704
same,Fraction Affected,[1]; Bouvardin 0.6 uM + 1 Gy IR,0.532
same,Combination Index,[1]; Bouvardin 0.6 uM + 2 Gy IR,1.546
same,Fraction Affected,[1]; Bouvardin 0.6 uM + 2 Gy IR,0.545
same,Combination Index,[1]; Bouvardin 0.6 uM + 4 Gy IR,1.251
same,Fraction Affected,[1]; Bouvardin 0.6 uM + 4 Gy IR,0.573
same,Combination Index,[1]; Bouvardin 1 uM + 1 Gy IR,13.885
same,Fraction Affected,[1]; Bouvardin 1 uM + 1 Gy IR,0.143
same,Combination Index,[1]; Bouvardin 1 uM + 2 Gy IR,2.245
same,Fraction Affected,[1]; Bouvardin 1 uM + 2 Gy IR,0.28
same,Combination Index,[1]; Bouvardin 1 uM + 4 Gy IR,1.023
same,Fraction Affected,[1]; Bouvardin 1 uM + 4 Gy IR,0.386
same,LD50,LD50 in mice,12.4 mg/kg
